Data published in US5322698A, “Process for the preparation of a tablet or dragee composition containing a heat-, light- and moisture-sensitive active ingredient having monoclinic crystal structure” (priority 1990, dated 1994).
Counter-ions that a name gives are not always drawn. Like-named read-outs stand apart in the source and are kept apart here. Values belong to the molecule of their own block, whether it stands above or below them.

What was measured:
[1] = Clinical investigations: half life in blood and relative bioavailability; assay type: in vivo, human; details: for half-life: human, blood, read-out: half life measured in the blood (converted)
[2] = Storage experiments in the presence of moisture, heat and light load (wet-granulated tablets); assay type: physicochemical; details: in the wet-granulated tablet of Comparative Example 1
Source text: The tablets obtained were subjected to storage experiments carried out in the presence of moisture and heat as well as light load.

[3] = antiarrhythmic reference drugs; Welling et al. 1985; cited from earlier work

relative bioavailability ([1]; composition according to the invention, clinical): about 80%
half-life ([1]; composition according to the invention): 3.2 h
half-life ([1]; injectable composition containing the same active ingredient): 2.4 h
Structure (SMILES): Cc1cccc(C)c1NNC(=N)N(C)C [1-(2,6-Dimethylphenyl)-4,4'-dimethylaminoguanidine hydrochloride]

prevention of decomposition process by antioxidant [2]: could not be prevented by ascorbic acid
Structure (SMILES): O=C1O[C@H]([C@@H](O)CO)C(O)=C1O [ascorbic acid]

Structure (SMILES): C=C[C@H]1C[N@@]2CC[C@H]1C[C@@H]2[C@@H](O)c1ccnc2ccc(OC)cc12 [quinidine]
bioavailability [3]: 40 to 70%
